Test results as given in patent US11400101B2, “Treatment of allergic rhinitis using a combination of mometasone and olopatadine” (GLENMARK SPECIALTY S.A., priority 2013, dated 2022).

Tests used:
[1] = test system: seasonal allergic rhinitis (SAR); test: Phase III clinical study in SAR, fall and mountain cedar season, Example 6; conditions: human, in vivo
Excerpt: A total of 1,176 randomized subjects (˜294 subjects per treatment arm) were enrolled in the study.
Subjects were randomized to treatment in a 1:1:1:1 ratio to the following four treatment arms, at multiple study sites.
(§1) This study consisted of four visits to the study site. After the initial screening visit (Visit 1), subjects who met all study selection criteria were required to undergo a single-blind placebo run-in period for 7-10 days. Following the completion of the run-in period, eligible subjects meeting the randomization criteria were enrolled and randomized to one of the four treatment arms. Subjects were dispensed medication as per the randomization list. Randomized subjects were required to undergo a 2 week (14 days) treatment period as per the protocol to assess the efficacy and safety of the assigned treatment. Subjects were instructed to record the symptom scores in a symptom assessment diary.
• Change from baseline in average AM and PM subject-reported 12-hour rTNSS (reflective TNSS) over the 14-day treatment period. […] The non-nasal symptoms are assessed in a similar manner to the ocular symptoms above. […]

[2] = Plasma pharmacokinetics of TP-1 in the Phase III study, day 1 and day 8 (steady state); format: in vivo, human; conditions: human, in vivo
Excerpt: as §1, with “diary. They were also scheduled to have at least two blood samples for PK assessment during the treatment period.” for “diary.”
• Change from baseline in average AM and PM subject-reported 12-hour rTNSS (reflective TNSS) over the 14-day treatment period. Secondary Endpoints • Change from baseline in average AM and PM subject-reported 12-hour iTNSS (instantaneous TNSS) over the 14 day treatment period. • Change from baseline in average AM and PM subject-reported 12-hour rTOSS (reflective TOSS) over the 14-day treatment period. • Onset of action for each treatment are assessed by comparing the change from baseline in post-treatment iTNSS between each active treatment and placebo at defined time points (prior to first dose (pre-dose), 15 min, 30 min, 45 min, 60 min, 90 min, 120 min, 150 min, 180 min, 210 min, and 240 min) after the first study treatment for 4 hours. • Change from baseline in the overall Rhinoconjunctivitis Quality of Life questionnaire (RQLQ)—Standardized Activities (RQLQ(S)) score on Day 15 (Visit 4) for the Full Analysis Set (FAS). Pharmacokinetic Endpoints • Plasma PK: Maximum plasma concentration (Cmax), time to attain Cmax (Tmax), and area under the plasma concentration-time curve over the dosing interval (AUCtau) will be estimated for mometasone furoate and olopatadine on Day 1 and Day 8 based on the pharmacokinetic analysis set (PKAS). Tertiary Efficacy Endpoints Nasal Symptoms: • Change from baseline in AM subject-reported rTNSS over the 14-day treatment period. • Change from baseline in AM subject-reported iTNSS over the 14-day treatment period. • Change from baseline in PM subject-reported rTNSS over the 14-day treatment period. • Change from baseline in PM subject-reported iTNSS over the 14-day treatment period. • Change from baseline in subject-reported reflective individual nasal symptoms over the 14-day treatment period (AM, PM and average of AM and PM). • Change from baseline in subject-reported instantaneous individual nasal symptoms over the 14-day treatment period (AM, PM and average of AM and PM). • Change from baseline in average AM and PM subject-reported rTNSS and iTNSS for each day. • Change from baseline in AM subject-reported rTNSS and iTNSS for each day. • Change from baseline in PM subject-reported rTNSS and iTNSS for each day. […]

[3] = test system: total cells and eosinophils in nasal lavage; test: Nasal lavage total cell count and eosinophils in ovalbumin induced rhinitis model; format: in vivo, guinea pigs; conditions: for Inhibition of total cell and eosinophils in nasal lavage (in words): MF 10 μg; for % inhibition of eosinophils / Percent inhibition of total cell count / Eosinophils × 10^5/ml nasal lavage / Total cell count × 10^5/ml nasal lavage: MF 10 μg per animal
Method: Male Dunkin Hartley guinea pigs were actively sensitized with a subcutaneous injection of 1.5 mg of ovalbumin and 20 mg of aluminum hydroxide gel on days 0 and 7. Guinea pigs were sensitized intranasally with 2% ovalbumin from days 14-17. On day 28, the animals were challenged with 6% ovalbumin intranasally. Mometasone furoate 10 μg was given intranasally 24 hours and 1 hour prior to the final ovalbumin challenge. Olopatadine hydrochloride was given intranasally 1 hour before the final ovalbumin challenge. The dosing volume was 40 μl/animal. The saline control group and ovalbumin control group received vehicle (40 μl, 0.1% Tween 80 in distilled water). Nasal lavage was performed at 4 hours after challenge of animals with saline or ovalbumin on day 28. Animals were anesthetized with an overdose of urethane, the trachea was exposed and nasal lavage was performed using 2 mL pre-warmed normal saline. The collected nasal lavage was taken for total cell count using a hemocytometer. The nasal lavage was centrifuged, and the cell pellet resuspended in 15 μL guinea pig serum and used for preparation of smears. Slides were stained with Leishman's stain and a differential cell count of 100 cells based on standard morphology was performed manually. The total number of eosinophils in each nasal lavage sample was calculated using the formula: [formula] Percent inhibition of eosinophils was calculated using the following formula: The procedure in Example 1 was repeated except 120 μg of olopatadine hydrochloride (based on the equivalent weight of olopatadine free base) was used. The animal groups in Table 3 below were used during this experiment. Compound administration was performed as in Example 1, except the dosing volume was 60 μl/animal. The saline control group and ovalbumin control group received vehicle (60 μl, 0.1% Tween 80 in distilled water). In vivo evaluations were performed as in Example 1.

[4] = Crystallization of olopatadine hydrochloride in the fixed dose combination aqueous suspension versus pH; format: physicochemical
[5] = Pharmacokinetics of olopatadine, single-dose three-period cross-over study, Example 12; format: in vivo, human; conditions: single dose nasal spray
Method: The pharmacokinetics of olopatadine in a fixed dose combination of mometasone furoate and olopatadine hydrochloride nasal spray was evaluated in a clinical trial. The clinical trial was a randomized, single-center, single-dose, open-label, three-period, six-sequence, cross-over study to evaluate three treatments administered as a nasal spray. The three treatments included a combination of mometasone furoate and olopatadine hydrochloride nasal spray, olopatadine hydrochloride nasal spray and […]® nasal spray. […] The study consisted of a screening visit, 3 single-dose treatment periods with washout periods of 7 to 14 days between dosing in each treatment period, an early withdrawal visit if applicable, and a follow-up telephone call (or visit) 1 to 7 days after completing the third treatment period. A total of 30 subjects were randomized to 1 of 6 treatment sequences and received at least 1 dose of study drug. All 30 subjects were included in the safety analysis set and the pharmacokinetic subset. All but 2 subjects completed the study per protocol.

[6] = test system: sneezing response; test: Sneezing response in ovalbumin induced rhinitis model (whole body plethysmography); format: in vivo, guinea pigs; conditions: for Inhibition of sneezing response (in words) / Number of Sneeze (0-50 min): MF 10 μg; for Percent inhibition of sneeze: MF 10 μg per animal, vs ovalbumin control; for Number of Sneeze (0-50 min): intranasal, ovalbumin challenged
Method: Male Dunkin Hartley guinea pigs were actively sensitized with a subcutaneous injection of 1.5 mg of ovalbumin and 20 mg of aluminum hydroxide gel on days 0 and 7. Guinea pigs were sensitized intranasally with 2% ovalbumin from days 14-17. On day 28, the animals were challenged with 6% ovalbumin intranasally. Mometasone furoate 10 μg was given intranasally 24 hours and 1 hour prior to the final ovalbumin challenge. Olopatadine hydrochloride was given intranasally 1 hour before the final ovalbumin challenge. The dosing volume was 40 μl/animal. The saline control group and ovalbumin control group received vehicle (40 μl, 0.1% Tween 80 in distilled water). Sneezing response was determined by using whole body plethysmography (Buxco Research Systems, USA) for 50 minutes after final saline or ovalbumin challenge. The procedure in Example 1 was repeated except 120 μg of olopatadine hydrochloride (based on the equivalent weight of olopatadine free base) was used. The animal groups in Table 3 below were used during this experiment. Compound administration was performed as in Example 1, except the dosing volume was 60 μl/animal. The saline control group and ovalbumin control group received vehicle (60 μl, 0.1% Tween 80 in distilled water). In vivo evaluations were performed as in Example 1.

[7] = Example 1, OH 50 μg, 4 hours after challenge

In the case of “Mometasone Furoate Monohydrate and Olopatadine Hydrochloride Nasal Spray (25 mcg+600 mcg) [TP-1]”, the “Urinary tract infection reported as adverse event” value [1] is reported as 1%.

With `CN(C)CC/C=C1/c2ccccc2COc2ccc(CC(=O)O)cc21.Cl` [Olopatadine Hydrochloride, (Z)-11-[3-(dimethylamino)propylidene]-6,11-dihydrodibenz[b,e]oxepin-2-acetic acid hydrochloride] the “Olopatadine Tmax, Median” value [2] was 1.00 h, the “Inhibition of total cell and eosinophils in nasal lavage (in words)” value ([3]; Example 1, OH 50 μg) was “did not show significant inhibition” and the “% inhibition of eosinophils” value ([3]; Example 1, OH 50 μg) was 2%. The “Percent inhibition of total cell count” value ([3]; Example 1, OH 50 μg) was 3%, the “Eosinophils × 10^5/ml nasal lavage” value [3, 7] was 3.64 × 10^5/ml and the “Total cell count × 10^5/ml nasal lavage” value [3, 7] was 6.63 × 10^5/ml. The “Inhibition of total cell and eosinophils in nasal lavage (in words)” value ([3]; Example 2, OH 120 μg) was “did not show significant inhibition”, the “% inhibition of eosinophils” value ([3]; Example 2, OH 120 μg) was 8% and the “Eosinophils × 10^5/ml nasal lavage” value ([3]; Example 2, OH 120 μg) was 3.08 × 10^5/ml. The “Percent inhibition of total cell count” value ([3]; Example 2, OH 120 μg) was 17%, the “Total cell count × 10^5/ml nasal lavage” value ([3]; Example 2, OH 120 μg) was 5.83 × 10^5/ml and the “State of olopatadine hydrochloride in the fixed dose combination aqueous suspension” value ([4]; pH of 5 to 5.5) was “crystallizes out”. For the same compound, the “State of olopatadine hydrochloride in the aqueous suspension” value ([4]; pH of about 3.3 to about 4.1) was “remains dissolved”, the “Last time point until which quantifiable concentrations were observed” value [5] was 48 h and the “Inhibition of sneezing response (in words)” value ([6]; Example 1, OH 50 μg) was “did not show significant inhibition”. For the same compound, the “Percent inhibition of sneeze” value ([6]; Example 1, OH 50 μg) was 45%, the “Number of Sneeze (0-50 min)” value ([6]; Example 1, per animal: OH 50 μg, combination 50 (OH) & 10 (MF)) was 12.29 and the “Inhibition of sneezing response (in words)” value ([6]; Example 2, OH 120 μg) was “did not show significant inhibition”. For the same compound, the “Percent inhibition of sneeze” value ([6]; Example 2, OH 120 μg) was 51% and the “Number of Sneeze (0-50 min)” value ([6]; Example 2, per animal: OH 120 μg, combination 120 (OH) & 10 (MF)) was 17.90.
